Where two headings read alike, the source gives them in different places.
Tests used:
ob/ob mice = assay: Gallbladder filling assay in ob/ob mice; format: in vivo, mouse; settings: once a day oral dose 100 mg/kg (single dose)
Method: Figure 8 (A) Relative gallbladder area and (B) relative bile weight after once a day oral dose or 3-day treatment. […] 1 h after the final dose, mice were re-fed for 3 h and then the gallbladder was removed and the area measured using a vernier caliper. The relative gallbladder area was calculated from the length multiplied by the width of the gallbladder. Bile weight was measured using analytical balances. **p < 0.01; ***p < 0.001. Error bar indicates SEM.
Acute efficacy in ob/ob mice. 7-week-old ob/ob mice (male) were divided into three groups (n = 8) based on 2 h-fasted blood glucose. […]
mg/kg) and 0.25% CMC (control) was then orally administered to 2 h-fasted mice, and blood glucose was measured at 2, 4, 6, 8, 10, and 24 h after dosing. […]
then divided into 3 subgroup of different time point (n = 8-9 each subgroup). […] Concentrations of active GLP-1[7-36 amide] in the serum were measured using ELISA kit from Linco Research. […]
administered to 12 h-fasted ob/ob mice (n = 3 per time point). […] After centrifugation at 11000 rpm for 5 mins, the supernatant was analyzed by LC-MS/MS. […]
administered orally to overnight-fasted ob/ob mice (male, n = 3-6). 1 h after dosing, mice were refed for 3 hours, and then gallbladders were removed, and the area was measured using vernier caliper. The relative gallbladder area was calculated from the length multiplied by the width of the gallbladder. […]

[1] = Drug levels in plasma, bile and gallbladder tissue after 3 days oral administration to ob/ob mice; format: in vivo; settings: male, mouse, after the 3-day gallbladder filling assay, 100 mg/kg p.o.
Source text: Drug levels test in plasma, bile, and gallbladder tissue after 3 days oral administration to ob/ob mice. Plasma, bile, and gallbladder were taken from experiments performed in accordance with the guidelines for the use of experimental animals in the Shanghai Laboratory Animal Administration (Shanghai, China) after three days treatment of 26a to ob/ob mice. Blood samples were collected through cardiac puncture into heparinized tubes, and plasma was harvested by centrifugation. Bile and gallbladder tissue were collected from each mouse after blood withdrawal. To 10 mg of gallbladder was added 100 μL of MeOH, and the mixture was homogenized. A 15 μL aliquot of bile samples was diluted with 100 μL of MeOH and then mixed. Plasma, bile, and tissue homogenate were stored at −20 °C. These samples were protein precipitated with MeCN using clopidogrel as the internal standard, and the supernatant was injected onto a LC-MS/MS system for the quantification of 26a. Chromatographic separation was […]
0.5 mL min−1 using ternary mobile phase: A (H2O with 5 mM ammonium acetate and 0.5% TFA); B(MeCN: H2O = 95:5 with 0.1% TFA ); C (MeOH with 1% TFA). The MS/MS detection was carried out in MRM mode using a positive electrospray ionization […]
Long-term study of 26a in ob/ob mice. Three groups of ob/ob mice (male) was orally […]
At day 0 (before dosing), 4, 8, 12 and 18, non-fasted blood glucose was measured before dosing. Mice were fasted for 6 h after dosing and then fasted blood glucose was measured.
The serum level of HbA1c was measured at day 0 (before dosing) and 18 by Adicon biochemical analyzer. The body weight of each mouse was recorded every day. The triglyceride and total cholesterol level was measured after the final dose.
Statistical analysis. All data were expressed as the mean ± SEM or mean ± SD. For the experiment including multiple time points, one-way ANOVA statistical analysis was used; otherwise, unpaired Student’s t test was used. P < 0.05 was considered to be statistically significant.

mouse TGR5 = target: T1, mouse TGR5 (Mus musculus, UniProt Q80SS6); assay: In vitro TGR5 reporter gene assay (mTGR5/CRE/HEK293)
T1 sequence (Q80SS6 1-329): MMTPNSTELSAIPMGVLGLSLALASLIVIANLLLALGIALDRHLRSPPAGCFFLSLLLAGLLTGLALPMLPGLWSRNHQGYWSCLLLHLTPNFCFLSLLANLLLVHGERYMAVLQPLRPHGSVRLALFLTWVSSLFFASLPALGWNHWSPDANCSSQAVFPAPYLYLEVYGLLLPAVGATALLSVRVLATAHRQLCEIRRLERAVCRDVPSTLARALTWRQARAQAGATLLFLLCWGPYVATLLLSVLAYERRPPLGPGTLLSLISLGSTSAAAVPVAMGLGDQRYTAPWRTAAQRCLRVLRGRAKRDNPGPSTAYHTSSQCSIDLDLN

SMILES: CN(CC[N+](C)(C)C)C(=O)CCc1cc(Cl)c(Oc2ccsc2C(=O)N2CCN(C3CC3)c3ccccc32)cc1Cl [Compound 26a]
- bile weight vs control (ob/ob mice): did not increase gallbladder area or bile weight significantly
- gallbladder area vs control (ob/ob mice): did not increase gallbladder area or bile weight significantly
- concentration at 3 days ([1]; read-out: concentration in gallbladder): 112 ± 30 ng/mL
- concentration at 3 days ([1]; bile, read-out: concentration in bile): 7800 ± 1850 ng/mL
- concentration at 3 days ([1]; plasma, read-out: concentration in plasma): 18 ± 3 ng/mL
- EC50 (mouse TGR5): 0.71 nM

From publication PMC4919643, “Intestinally-targeted TGR5 agonists equipped with quaternary ammonium have an improved hypoglycemic effect and reduced gallbladder filling effect” (Scientific Reports, 2016)
